Laboratory results as given in US11311542B2, “Inhibitors of cyclin dependent kinase 7 (CDK7)” (Syros Pharmaceuticals, Inc., priority 2018, dated 2022).
Read-outs that look alike come from different tables or passages of the source.

Tests used:
MB453 cells = test: Inhibition of cell proliferation (CyQUANT Direct), MB453; assay type: cell-based, human; settings: MB453, 72-hour
Method: (§1) HCC70 and MB453 cells are cell lines derived from human triple negative breast cancer COV318 and COV504 cells are cell lines derived from human ovarian cancer. Representative compounds of the invention were tested at different concentrations (from 4 μM to 126.4 pM; 0.5 log serial dilutions) for their ability to inhibit the proliferation of each of these cell lines. Known CDK inhibitors dinaciclib or N-((1S,3R)-3-((5-chloro-4-(1H-indol-3-yl) pyrimidin-2-yl)amino)cyclohexyl)-5-((E)-4-(dimethylamino)but-2-enamido)picolinamide and triptolide were used as positive controls. Cells were seeded at approximately 2,000 cells/well and grown in ATCC-formulated RPMI-1640 Medium (ATCC 30-2001)+10% FBS. The cells were cultured at 37° C. in a humidified chamber in the presence of 5% CO2. Proliferation assays were conducted over a 72-hour time period. CyQUANT® Direct Cell Proliferation Assay (Life Technologies, Chicago, Ill. USA) was used to assess the anti-proliferative effects of the compounds following manufacturer's directions and utilizing the reagents supplied with the CyQUANT® Direct Cell kit.

[1] = target: CDK7/Cyclin H/MAT1 complex (Homo sapiens, UniProt P50613); test: CDK7 kinase inhibition assay (Caliper/LabChip EZ Reader)
Sequence of CDK7/Cyclin H/MAT1 complex (P50613 whole entry): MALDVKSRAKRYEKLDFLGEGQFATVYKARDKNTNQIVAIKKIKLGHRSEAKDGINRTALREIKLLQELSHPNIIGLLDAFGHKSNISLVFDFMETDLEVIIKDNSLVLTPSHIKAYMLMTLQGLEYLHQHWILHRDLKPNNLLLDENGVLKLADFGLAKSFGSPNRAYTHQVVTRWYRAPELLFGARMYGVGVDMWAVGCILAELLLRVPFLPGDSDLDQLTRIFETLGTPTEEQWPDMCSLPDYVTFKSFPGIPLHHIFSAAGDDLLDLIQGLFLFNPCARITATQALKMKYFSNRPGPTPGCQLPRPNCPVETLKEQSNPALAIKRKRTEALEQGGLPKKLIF
Sequence of CDK7/Cyclin H/MAT1 complex (P51946 whole entry partner): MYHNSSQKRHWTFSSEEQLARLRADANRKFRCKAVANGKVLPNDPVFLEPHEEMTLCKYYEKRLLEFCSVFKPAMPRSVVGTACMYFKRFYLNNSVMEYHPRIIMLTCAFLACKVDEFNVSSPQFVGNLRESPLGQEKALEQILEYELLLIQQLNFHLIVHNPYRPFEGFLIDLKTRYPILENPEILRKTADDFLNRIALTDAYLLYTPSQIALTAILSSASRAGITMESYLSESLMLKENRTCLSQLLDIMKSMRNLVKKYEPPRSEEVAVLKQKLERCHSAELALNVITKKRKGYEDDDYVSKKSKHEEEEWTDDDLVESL
Sequence of CDK7/Cyclin H/MAT1 complex (P51948 whole entry partner): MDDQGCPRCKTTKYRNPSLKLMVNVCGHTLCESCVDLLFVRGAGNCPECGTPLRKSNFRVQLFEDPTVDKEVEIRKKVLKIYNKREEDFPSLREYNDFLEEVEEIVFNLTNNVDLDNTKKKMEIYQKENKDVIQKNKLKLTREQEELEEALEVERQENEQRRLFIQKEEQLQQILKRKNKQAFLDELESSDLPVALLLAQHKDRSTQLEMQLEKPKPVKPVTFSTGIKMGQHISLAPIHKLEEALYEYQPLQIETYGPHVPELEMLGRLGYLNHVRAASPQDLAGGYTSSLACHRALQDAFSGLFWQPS
Method: (§2) Compounds described herein were assayed for inhibition of CDK7, CDK9, CDK12, and CDK2 activity at Biortus Biosciences (Jiangyin, Jiangsu Province, P.R. of China) using kinase assays for each CDK developed with a Caliper/LabChip EZ Reader (Perkin Elmer, Waltham, Mass.).
(§3) Furthermore, the CDK9 inhibition assay used CDK9/Cyclin T1 complex (8 nM) and “5-FAM-CDK9tide” peptide substrate (2 μM, synthesized fluorophore-labeled peptide with the following sequence: 5-FAM-GSRTPMY-NH2 (SEQ ID NO:2) where 5-FAM is defined above and NH2 signifies a C-terminal amide) with 10 mM MgCl2 in the buffer composition listed above. The CDK12 inhibition assay used CDK12 (aa686-1082)/Cyclin K complex (50 nM) and “5-FAM-CDK9tide” (2 μM) as defined above, with 2 mM MgCl2 in the buffer composition above. Additionally, the CDK2 inhibition assay used CDK2/Cyclin E1 complex (0.5 nM) and “5-FAM-CDK7tide” (2 μM; defined above) with 2 mM MgCl2 in the buffer composition above.
(§4) The incubation period at 27° C. for each CDK inhibition assay was chosen such that the fraction of phosphorylated peptide product produced in each assay, relative to the total peptide concentration, was approximately 20% (±5%) for the uninhibited kinase (35 min. for CDK7, 35 min. for CDK2, 3 hr. for CDK12, 15 min. for CDK9).

HCC70 cells = test: Inhibition of cell proliferation (CyQUANT Direct), HCC70; assay type: cell-based, human; settings: HCC70, 72-hour
Method: as §1

COV504 cells = test: Inhibition of cell proliferation (CyQUANT Direct), COV504; assay type: cell-based, human; settings: COV504, 72-hour
Method: as §1

COV318 cells = test: Inhibition of cell proliferation (CyQUANT Direct), COV318; assay type: cell-based, human; settings: COV318, 72-hour
Method: as §1

[2] = target: CDK12 (aa686-1082)/Cyclin K complex (Homo sapiens, UniProt Q9NYV4); test: CDK12 kinase inhibition assay (Caliper/LabChip EZ Reader)
Sequence of CDK12 (aa686-1082)/Cyclin K complex (Q9NYV4 686-1082): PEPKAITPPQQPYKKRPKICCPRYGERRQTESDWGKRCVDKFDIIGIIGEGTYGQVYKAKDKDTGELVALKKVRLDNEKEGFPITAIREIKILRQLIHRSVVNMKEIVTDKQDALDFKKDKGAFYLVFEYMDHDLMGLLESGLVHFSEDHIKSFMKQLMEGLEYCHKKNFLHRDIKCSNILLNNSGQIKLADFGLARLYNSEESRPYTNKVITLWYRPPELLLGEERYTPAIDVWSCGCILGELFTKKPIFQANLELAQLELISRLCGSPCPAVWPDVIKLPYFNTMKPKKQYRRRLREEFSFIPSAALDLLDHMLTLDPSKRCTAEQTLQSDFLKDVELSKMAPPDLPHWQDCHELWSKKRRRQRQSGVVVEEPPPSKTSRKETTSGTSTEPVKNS
Sequence of CDK12 (aa686-1082)/Cyclin K complex (O75909 whole entry partner, the tested form may be a part): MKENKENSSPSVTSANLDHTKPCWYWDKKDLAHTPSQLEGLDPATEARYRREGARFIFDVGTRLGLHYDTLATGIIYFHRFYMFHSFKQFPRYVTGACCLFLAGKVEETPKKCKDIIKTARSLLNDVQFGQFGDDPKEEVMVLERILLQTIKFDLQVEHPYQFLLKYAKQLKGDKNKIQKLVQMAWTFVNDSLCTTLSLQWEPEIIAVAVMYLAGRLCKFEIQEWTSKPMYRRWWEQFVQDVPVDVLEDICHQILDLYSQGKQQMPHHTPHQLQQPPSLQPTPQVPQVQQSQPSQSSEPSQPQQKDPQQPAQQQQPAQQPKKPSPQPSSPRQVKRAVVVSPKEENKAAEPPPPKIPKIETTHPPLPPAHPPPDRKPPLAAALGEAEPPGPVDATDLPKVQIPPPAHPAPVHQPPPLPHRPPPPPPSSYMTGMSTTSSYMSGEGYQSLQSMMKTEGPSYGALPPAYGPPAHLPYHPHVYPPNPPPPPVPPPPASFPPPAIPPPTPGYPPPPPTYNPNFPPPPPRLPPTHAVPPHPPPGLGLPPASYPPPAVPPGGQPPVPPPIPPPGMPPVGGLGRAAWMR

CDK9/Cyclin T1 complex = CDK9/Cyclin T1 complex (Homo sapiens, UniProt P50750); test: CDK9 kinase inhibition assay (Caliper/LabChip EZ Reader)
Sequence of CDK9/Cyclin T1 complex (P50750 whole entry): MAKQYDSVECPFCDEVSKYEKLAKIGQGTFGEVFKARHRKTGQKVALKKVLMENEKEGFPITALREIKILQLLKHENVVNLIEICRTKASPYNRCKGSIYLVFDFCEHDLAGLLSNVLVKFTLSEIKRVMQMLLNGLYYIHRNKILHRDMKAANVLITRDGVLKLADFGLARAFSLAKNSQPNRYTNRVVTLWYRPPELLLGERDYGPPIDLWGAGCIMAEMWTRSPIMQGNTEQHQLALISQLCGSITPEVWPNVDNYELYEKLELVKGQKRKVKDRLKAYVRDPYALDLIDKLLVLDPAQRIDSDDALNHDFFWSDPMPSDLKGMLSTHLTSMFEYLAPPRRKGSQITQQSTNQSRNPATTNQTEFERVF
Sequence of CDK9/Cyclin T1 complex (O60563 whole entry partner): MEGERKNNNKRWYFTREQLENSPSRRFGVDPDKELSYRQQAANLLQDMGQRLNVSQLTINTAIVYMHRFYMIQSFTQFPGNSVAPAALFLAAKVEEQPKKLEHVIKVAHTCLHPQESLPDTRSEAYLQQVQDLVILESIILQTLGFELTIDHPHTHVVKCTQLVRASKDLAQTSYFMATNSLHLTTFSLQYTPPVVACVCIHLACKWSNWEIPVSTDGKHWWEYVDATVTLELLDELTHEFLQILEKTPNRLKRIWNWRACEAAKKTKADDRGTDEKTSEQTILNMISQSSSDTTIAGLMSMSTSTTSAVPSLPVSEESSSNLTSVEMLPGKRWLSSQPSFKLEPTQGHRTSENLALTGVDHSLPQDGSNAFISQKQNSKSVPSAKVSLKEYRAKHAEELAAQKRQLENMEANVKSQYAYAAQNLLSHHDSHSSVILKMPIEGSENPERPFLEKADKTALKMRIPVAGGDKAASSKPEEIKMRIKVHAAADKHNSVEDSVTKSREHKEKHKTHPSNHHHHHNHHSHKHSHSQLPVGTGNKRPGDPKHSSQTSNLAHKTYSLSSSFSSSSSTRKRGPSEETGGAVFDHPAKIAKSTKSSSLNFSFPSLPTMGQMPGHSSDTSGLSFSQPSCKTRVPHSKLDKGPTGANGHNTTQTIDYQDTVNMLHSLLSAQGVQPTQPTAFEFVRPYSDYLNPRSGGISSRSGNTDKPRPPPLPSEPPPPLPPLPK
Method: as §2, §3, §4

CDK2/Cyclin E1 complex = CDK2/Cyclin E1 complex (Homo sapiens, UniProt P24941); test: CDK2 kinase inhibition assay (Caliper/LabChip EZ Reader)

Compound	IC50 (MB453 cells; Homo sapiens)	IC50 [1]	IC50 (HCC70 cells; Homo sapiens)	IC50 (COV504 cells; Homo sapiens)	IC50 (COV318 cells; Homo sapiens)	IC50 [2]	IC50 (CDK9/Cyclin T1 complex)	IC50 (CDK2/Cyclin E1 complex)	IC50 (MB453 cells)	IC50 ([1]; read-out: CDK7 IC50, CDK7/Cyclin H/MAT1 6 nM, ATP 2 mM, 35 min at 27° C.)	IC50 (HCC70 cells)	IC50 (COV504 cells)	IC50 (COV318 cells)	IC50 ([2]; read-out: CDK12 IC50, CDK12 (aa686-1082)/Cyclin K 50 nM, ATP 2 mM, 3 hr at 27° C.)	IC50 (CDK9/Cyclin T1 complex; read-out: CDK9 IC50, CDK9/Cyclin T1 8 nM, ATP 2 mM, 15 min at 27° C.)	IC50 (CDK2/Cyclin E1 complex; read-out: CDK2 IC50, CDK2/Cyclin E1 0.5 nM, ATP 2 mM, 35 min at 27° C.)
Cc1noc(C)c1-c1cc2[nH]cc(-c3nc(N[C@H]4CCCNC4)ncc3C(F)(F)F)c2cc1F [Compound 134, 4-(6-(3,5-dimethylisoxazol-4-yl)-5-fluoro-1H-indol-3-yl)-N—((S)-piperidin-3-yl)-5-(trifluoromethyl)pyrimidin-2-amine]	< 100 nM	< 30 nM	< 100 nM	< 100 nM	< 100 nM	> 500 nM	> 500 nM	> 500 nM	–	–	–	–	–	–	–	–
Cc1nscc1-c1ccc2c(-c3nc(N[C@H]4CCCNC4)ncc3C(F)(F)F)c[nH]c2n1 [Compound 149]	< 100 nM	< 30 nM	< 100 nM	< 100 nM	< 100 nM	> 500 nM	> 500 nM	> 500 nM	–	–	–	–	–	–	–	–
Cc1noc(C)c1-c1ccc2c(-c3nc(N[C@@H]4CNC[C@H](O)C4)ncc3C(F)(F)F)c[nH]c2c1 [Compound 105, (3R,5S)-5-[[4-[6-(3,5-dimethylisoxazol-4-yl)-1H-indol-3-yl]-5-(trifluoromethyl)pyrimidin-2-yl]amino]piperidin-3-ol]	100 to 500 nM	< 30 nM	< 100 nM	100 to 500 nM	500 to 1000 nM	> 500 nM	> 500 nM	> 500 nM	–	–	–	–	–	–	–	–
Cc1nc(-c2ccc3c(-c4nc(N[C@H]5CCCNC5)ncc4C(F)(F)F)n[nH]c3n2)no1 [Compound 168, 4-[6-(5-methyl-1,2,4-oxadiazol-3-yl)-1H-pyrazolo[3,4-b]pyridin-3-yl]-N-[(3S)-3-piperidyl]-5-(trifluoromethyl)pyrimidin-2-amine]	< 100 nM	< 30 nM	< 100 nM	< 100 nM	< 100 nM	> 500 nM	> 500 nM	> 500 nM	–	–	–	–	–	–	–	–
Cc1noc(C)c1-c1ccc2c(-c3nc(N[C@@H]4CNCC(C)(C)C4)ncc3C(F)(F)F)c[nH]c2c1 [Compound 102]	< 100 nM	< 30 nM	< 100 nM	< 100 nM	100 to 500 nM	> 500 nM	> 500 nM	> 500 nM	–	–	–	–	–	–	–	–
(3S)-tert-butyl 3-((4-(6-(3,5-dimethylisoxazol-4-yl)-5-fluoro-1H-pyrrolo[2,3-b]pyridin-3-yl)-5-(trifluoromethyl)pyrimidin-2-yl)amino)piperidine-1-carboxylate [Compound 138]	–	–	–	–	–	–	–	–	< 100 nM	< 30 nM	< 100 nM	< 100 nM	< 100 nM	> 500 nM	> 500 nM	> 500 nM
Cn1nnnc1-c1ccc2c(-c3nc(N[C@H]4CCCNC4)ncc3C(F)(F)F)c[nH]c2c1 [Compound 122, 4-[6-(1-methyltetrazol-5-yl)-1Hindol-3-yl]-N-[(3S)-3-piperidyl]-5-(trifluoromethyl)pyrimidin-2-amine]	< 100 nM	< 30 nM	100 to 500 nM	< 100 nM	> 1000 nM	> 500 nM	> 500 nM	> 500 nM	–	–	–	–	–	–	–	–
FC(F)(F)c1cnc(N[C@H]2CCCNC2)nc1-c1n[nH]c2cc(-c3nccs3)ccc12 [Compound 103]	< 100 nM	< 30 nM	100 to 500 nM	< 100 nM	100 to 500 nM	100 to 500 nM	> 500 nM	> 500 nM	–	–	–	–	–	–	–	–
CO[C@H]1CNC[C@@H](Nc2ncc(C(F)(F)F)c(-c3c[nH]c4cc(-c5c(C)noc5C)ccc34)n2)C1 [Compound 131]	< 100 nM	< 30 nM	100 to 500 nM	< 100 nM	100 to 500 nM	> 500 nM	> 500 nM	> 500 nM	–	–	–	–	–	–	–	–
